Earlier results in patent US20210290639A1, “IMMEDIATE RELEASE FORMULATION OF A TRIPLE COMBINATION OF ACTIVE PHARMACEUTICAL INGREDIENTS USEFUL IN THE TREATMENT OF POLYCYSTIC OVARY SYNDROME” (priority 2018, published 2021).

Details: low solubility and high permeability

Row | BCS class | Structure (SMILES)
1 | Class II | CC(=O)S[C@@H]1CC2=CC(=O)CC[C@]2(C)[C@H]2CC[C@@]3(C)[C@@H](CC[C@@]34CCC(=O)O4)[C@H]12 [spironolactone, 7α-Acetylthio-3-oxo-17α-pregn-4-ene-21,17β-carbolactone]
2 | Class II | CCc1ccc(CCOc2ccc(CC3SC(=O)NC3=O)cc2)nc1 (racemic) [pioglitazone, ((±)-5-[p-[2-(5-Ethyl-2-pyridyl)ethoxy]benzyl]-2,4-thiazolidinedione]
